Results: article PMC10176470, “Engaging a Non-catalytic Cysteine Residue Drives Potent and Selective Inhibition of Caspase-6” (Journal of the American Chemical Society, 2023)
Read-outs that look alike come from different tables or passages of the source.

What was measured:
Assay type in all cases: cell-based
[1] = target: proteins of HEK293T cells transiently overexpressing caspase-6 (Homo sapiens, UniProt P61221); settings: exp_ref Probe; protein ABCE1 (P61221); analysis C6
[2] = target: proteins of HEK293T cells transiently overexpressing caspase-6 (Homo sapiens, UniProt P61978); settings: protein HNRNPK (P61978)
[3] = target: proteins of HEK293T cells transiently overexpressing caspase-6 (Homo sapiens, UniProt Q9H7Z7); settings: protein PTGES2 (Q9H7Z7)
proteins of HEK293T cells transiently overexpressing caspase-6 (Homo sapiens, UniProt Q9H7Z7), sequence (Q9H7Z7 whole entry): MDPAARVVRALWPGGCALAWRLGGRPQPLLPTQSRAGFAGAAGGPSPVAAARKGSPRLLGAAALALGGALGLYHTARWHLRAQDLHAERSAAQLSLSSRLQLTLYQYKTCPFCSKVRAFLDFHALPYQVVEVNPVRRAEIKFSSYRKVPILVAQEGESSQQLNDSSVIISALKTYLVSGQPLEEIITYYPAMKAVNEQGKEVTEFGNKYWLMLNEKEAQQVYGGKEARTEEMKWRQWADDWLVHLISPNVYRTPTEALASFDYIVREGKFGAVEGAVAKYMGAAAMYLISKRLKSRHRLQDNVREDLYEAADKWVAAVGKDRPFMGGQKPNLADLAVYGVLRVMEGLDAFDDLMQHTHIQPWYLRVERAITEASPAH

[4] = target: proteins of HEK293T cells transiently overexpressing caspase-6 (Homo sapiens, UniProt Q96AE4); settings: Probe; protein FUBP1 Q96AE4
[5] = target: proteins of HEK293T cells transiently overexpressing caspase-6 (Homo sapiens, UniProt P62249); settings: exp_ref Probe; protein RPS16 (P62249); analysis C6
[6] = target: proteins of HEK293T cells transiently overexpressing caspase-6 (Homo sapiens, UniProt Q16576); settings: exp_ref Probe; protein RBBP7 (Q16576); analysis C6
[7] = target: proteins of HEK293T cells transiently overexpressing caspase-6 (Homo sapiens, UniProt P21333)
proteins of HEK293T cells transiently overexpressing caspase-6 (Homo sapiens, UniProt P21333), sequence (P21333 whole entry): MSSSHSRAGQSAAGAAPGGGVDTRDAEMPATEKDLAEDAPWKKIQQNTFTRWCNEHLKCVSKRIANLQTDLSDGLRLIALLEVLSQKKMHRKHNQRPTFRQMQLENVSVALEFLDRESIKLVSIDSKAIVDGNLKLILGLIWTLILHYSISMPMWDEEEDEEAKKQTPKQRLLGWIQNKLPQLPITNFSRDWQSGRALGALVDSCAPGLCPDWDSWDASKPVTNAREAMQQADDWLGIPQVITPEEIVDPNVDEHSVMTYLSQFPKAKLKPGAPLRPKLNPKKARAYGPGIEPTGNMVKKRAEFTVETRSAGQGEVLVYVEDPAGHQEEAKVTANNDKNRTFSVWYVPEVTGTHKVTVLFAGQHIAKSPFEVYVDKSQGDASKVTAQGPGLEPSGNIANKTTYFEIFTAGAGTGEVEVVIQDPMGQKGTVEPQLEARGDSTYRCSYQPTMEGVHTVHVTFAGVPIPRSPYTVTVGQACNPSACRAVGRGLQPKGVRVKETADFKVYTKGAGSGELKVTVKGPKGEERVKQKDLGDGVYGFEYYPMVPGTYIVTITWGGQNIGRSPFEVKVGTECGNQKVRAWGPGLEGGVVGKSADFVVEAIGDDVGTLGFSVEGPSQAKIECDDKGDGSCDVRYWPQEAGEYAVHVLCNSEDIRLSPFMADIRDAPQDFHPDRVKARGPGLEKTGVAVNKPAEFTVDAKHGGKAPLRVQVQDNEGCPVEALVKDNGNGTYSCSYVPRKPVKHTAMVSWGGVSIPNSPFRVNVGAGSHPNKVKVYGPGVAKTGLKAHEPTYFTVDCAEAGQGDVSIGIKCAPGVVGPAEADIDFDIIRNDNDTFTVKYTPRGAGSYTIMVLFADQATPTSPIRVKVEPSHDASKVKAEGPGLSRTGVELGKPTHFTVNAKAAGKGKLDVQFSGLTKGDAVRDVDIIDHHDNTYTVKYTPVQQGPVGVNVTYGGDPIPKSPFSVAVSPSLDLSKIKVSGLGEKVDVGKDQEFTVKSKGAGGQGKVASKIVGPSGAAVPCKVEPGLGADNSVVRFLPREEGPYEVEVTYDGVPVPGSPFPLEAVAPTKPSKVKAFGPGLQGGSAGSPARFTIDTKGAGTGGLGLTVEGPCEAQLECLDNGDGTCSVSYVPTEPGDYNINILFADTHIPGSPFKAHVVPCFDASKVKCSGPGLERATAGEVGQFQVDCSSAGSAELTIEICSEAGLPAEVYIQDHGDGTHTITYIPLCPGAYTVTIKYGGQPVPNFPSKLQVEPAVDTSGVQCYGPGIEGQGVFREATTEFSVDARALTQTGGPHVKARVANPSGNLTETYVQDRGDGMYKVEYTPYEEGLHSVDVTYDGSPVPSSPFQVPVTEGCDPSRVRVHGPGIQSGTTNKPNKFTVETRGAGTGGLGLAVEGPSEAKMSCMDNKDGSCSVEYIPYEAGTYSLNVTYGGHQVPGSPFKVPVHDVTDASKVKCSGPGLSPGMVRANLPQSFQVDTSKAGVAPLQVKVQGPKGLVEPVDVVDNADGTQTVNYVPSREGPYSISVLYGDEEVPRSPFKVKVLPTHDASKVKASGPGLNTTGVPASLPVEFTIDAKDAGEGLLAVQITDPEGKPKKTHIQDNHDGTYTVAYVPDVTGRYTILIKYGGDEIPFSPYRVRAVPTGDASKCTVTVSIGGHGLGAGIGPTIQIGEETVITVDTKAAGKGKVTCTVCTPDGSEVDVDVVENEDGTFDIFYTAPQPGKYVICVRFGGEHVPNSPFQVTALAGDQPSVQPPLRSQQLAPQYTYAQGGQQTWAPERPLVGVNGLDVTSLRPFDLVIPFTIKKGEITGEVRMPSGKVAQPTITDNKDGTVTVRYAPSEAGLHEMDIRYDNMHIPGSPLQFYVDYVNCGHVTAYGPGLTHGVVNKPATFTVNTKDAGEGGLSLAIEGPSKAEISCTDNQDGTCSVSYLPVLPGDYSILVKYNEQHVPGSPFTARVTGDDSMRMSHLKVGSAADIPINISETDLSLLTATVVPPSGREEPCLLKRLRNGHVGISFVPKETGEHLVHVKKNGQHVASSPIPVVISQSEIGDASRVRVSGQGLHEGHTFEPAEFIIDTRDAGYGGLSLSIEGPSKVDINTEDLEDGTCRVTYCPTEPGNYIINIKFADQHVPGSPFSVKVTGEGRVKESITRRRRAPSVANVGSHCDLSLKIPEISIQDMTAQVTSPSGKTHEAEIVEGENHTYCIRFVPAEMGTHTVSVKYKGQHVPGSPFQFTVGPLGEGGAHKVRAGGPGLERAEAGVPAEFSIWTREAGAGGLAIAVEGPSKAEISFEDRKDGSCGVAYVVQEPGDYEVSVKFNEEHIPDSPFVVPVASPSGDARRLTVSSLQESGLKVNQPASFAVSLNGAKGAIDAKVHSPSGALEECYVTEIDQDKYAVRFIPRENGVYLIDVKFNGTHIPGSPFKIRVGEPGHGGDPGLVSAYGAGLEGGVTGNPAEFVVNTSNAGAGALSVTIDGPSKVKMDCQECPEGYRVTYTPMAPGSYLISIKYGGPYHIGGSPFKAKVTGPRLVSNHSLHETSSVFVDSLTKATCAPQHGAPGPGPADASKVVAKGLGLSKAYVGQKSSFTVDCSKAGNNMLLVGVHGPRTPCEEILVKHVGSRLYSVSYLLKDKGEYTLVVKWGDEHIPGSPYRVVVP

[8] = target: proteins of HEK293T cells transiently overexpressing caspase-6 (Homo sapiens, UniProt P35527); settings: Probe; protein KRT9 P35527
[9] = target: proteins of HEK293T cells transiently overexpressing caspase-6 (Homo sapiens, UniProt P61981); settings: Probe; protein YWHAG P61981
proteins of HEK293T cells transiently overexpressing caspase-6 (Homo sapiens, UniProt P61981), sequence (P61981 whole entry): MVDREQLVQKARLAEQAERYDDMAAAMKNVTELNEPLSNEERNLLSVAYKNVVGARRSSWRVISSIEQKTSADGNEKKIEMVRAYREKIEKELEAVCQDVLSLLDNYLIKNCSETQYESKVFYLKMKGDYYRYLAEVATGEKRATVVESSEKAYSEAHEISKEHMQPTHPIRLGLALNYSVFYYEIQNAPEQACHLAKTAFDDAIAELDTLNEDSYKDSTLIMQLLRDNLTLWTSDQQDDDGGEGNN

[10] = target: proteins of HEK293T cells transiently overexpressing caspase-6 (Homo sapiens, UniProt P62913); settings: protein RPL11 (P62913)
[11] = target: proteins of HEK293T cells transiently overexpressing caspase-6 (Homo sapiens, UniProt P13797); settings: exp_ref Probe; protein PLS3 (P13797); analysis C6
[12] = target: proteins of HEK293T cells transiently overexpressing caspase-6 (Homo sapiens, UniProt Q92900); settings: Probe; protein UPF1 Q92900
proteins of HEK293T cells transiently overexpressing caspase-6 (Homo sapiens, UniProt Q92900), sequence (Q92900 whole entry): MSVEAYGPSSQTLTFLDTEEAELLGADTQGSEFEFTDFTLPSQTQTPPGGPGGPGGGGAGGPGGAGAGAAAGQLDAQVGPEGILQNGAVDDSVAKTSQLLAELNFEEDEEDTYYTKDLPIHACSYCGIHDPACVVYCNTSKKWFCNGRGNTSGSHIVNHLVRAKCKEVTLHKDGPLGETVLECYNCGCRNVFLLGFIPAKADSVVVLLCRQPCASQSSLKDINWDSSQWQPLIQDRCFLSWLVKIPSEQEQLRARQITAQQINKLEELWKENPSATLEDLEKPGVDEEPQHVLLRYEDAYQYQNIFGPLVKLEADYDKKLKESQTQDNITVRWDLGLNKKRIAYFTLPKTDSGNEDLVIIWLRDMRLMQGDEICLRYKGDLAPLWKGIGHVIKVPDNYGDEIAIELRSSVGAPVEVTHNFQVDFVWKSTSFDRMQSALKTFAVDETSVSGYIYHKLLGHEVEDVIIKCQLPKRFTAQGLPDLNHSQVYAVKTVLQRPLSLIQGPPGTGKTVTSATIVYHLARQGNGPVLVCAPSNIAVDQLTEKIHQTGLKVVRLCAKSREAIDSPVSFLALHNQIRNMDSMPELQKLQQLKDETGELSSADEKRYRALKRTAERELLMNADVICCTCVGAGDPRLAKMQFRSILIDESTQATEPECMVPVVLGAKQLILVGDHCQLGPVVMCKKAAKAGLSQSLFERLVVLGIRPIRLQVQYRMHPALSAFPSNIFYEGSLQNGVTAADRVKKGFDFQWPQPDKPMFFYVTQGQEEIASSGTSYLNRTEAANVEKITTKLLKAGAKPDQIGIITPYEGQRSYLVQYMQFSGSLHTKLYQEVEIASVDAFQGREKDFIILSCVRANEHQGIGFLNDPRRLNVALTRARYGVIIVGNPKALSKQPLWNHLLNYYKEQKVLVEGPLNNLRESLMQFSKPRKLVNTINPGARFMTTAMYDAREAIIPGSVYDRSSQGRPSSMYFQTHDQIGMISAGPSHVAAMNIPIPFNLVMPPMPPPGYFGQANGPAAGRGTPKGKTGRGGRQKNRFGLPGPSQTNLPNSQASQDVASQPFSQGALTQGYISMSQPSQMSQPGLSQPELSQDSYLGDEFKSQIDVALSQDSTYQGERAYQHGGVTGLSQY

[13] = target: proteins of HEK293T cells transiently overexpressing caspase-6 (Homo sapiens, UniProt P23246); settings: exp_ref Probe; protein SFPQ (P23246); analysis C6
proteins of HEK293T cells transiently overexpressing caspase-6 (Homo sapiens, UniProt P23246), sequence (P23246 whole entry): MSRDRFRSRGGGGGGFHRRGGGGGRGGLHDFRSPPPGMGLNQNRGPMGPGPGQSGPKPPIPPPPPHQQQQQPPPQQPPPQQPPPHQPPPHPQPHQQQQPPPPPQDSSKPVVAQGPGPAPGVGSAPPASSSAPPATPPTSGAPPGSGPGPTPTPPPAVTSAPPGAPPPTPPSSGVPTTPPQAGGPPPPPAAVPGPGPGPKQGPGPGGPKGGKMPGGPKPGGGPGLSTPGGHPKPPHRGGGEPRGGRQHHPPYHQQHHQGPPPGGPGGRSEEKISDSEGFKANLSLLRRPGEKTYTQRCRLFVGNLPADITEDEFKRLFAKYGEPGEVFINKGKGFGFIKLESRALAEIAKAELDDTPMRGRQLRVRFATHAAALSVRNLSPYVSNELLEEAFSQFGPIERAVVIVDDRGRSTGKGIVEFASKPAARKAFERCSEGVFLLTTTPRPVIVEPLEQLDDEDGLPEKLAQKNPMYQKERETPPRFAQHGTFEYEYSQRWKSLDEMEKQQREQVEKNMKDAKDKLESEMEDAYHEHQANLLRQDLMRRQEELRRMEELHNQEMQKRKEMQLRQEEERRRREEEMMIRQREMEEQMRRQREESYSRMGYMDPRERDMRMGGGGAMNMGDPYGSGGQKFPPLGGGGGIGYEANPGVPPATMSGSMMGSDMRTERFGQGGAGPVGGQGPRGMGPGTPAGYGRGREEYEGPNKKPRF

[14] = target: proteins of HEK293T cells transiently overexpressing caspase-6 (Homo sapiens, UniProt P31943); settings: exp_ref Probe; protein HNRNPH1 (P31943); analysis C6
[15] = target: proteins of HEK293T cells transiently overexpressing caspase-6 (Homo sapiens, UniProt P30050); settings: protein RPL12 (P30050)
[16] = target: T1, proteins of HEK293T cells transiently overexpressing caspase-6 (Homo sapiens, UniProt P45880); settings: protein VDAC2 (P45880)
T1 sequence (P45880 1-294): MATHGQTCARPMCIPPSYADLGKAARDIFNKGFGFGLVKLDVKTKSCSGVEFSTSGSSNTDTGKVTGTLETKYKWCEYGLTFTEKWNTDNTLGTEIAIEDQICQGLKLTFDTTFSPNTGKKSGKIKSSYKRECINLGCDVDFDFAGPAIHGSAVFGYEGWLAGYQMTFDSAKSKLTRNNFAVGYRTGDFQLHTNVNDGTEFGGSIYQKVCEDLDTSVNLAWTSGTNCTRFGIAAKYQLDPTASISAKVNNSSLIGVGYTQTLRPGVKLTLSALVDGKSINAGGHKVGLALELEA

[17] = target: proteins of HEK293T cells transiently overexpressing caspase-6 (Homo sapiens, UniProt P25786); settings: Probe; protein PSMA1 P25786
[18] = target: proteins of HEK293T cells transiently overexpressing caspase-6 (Homo sapiens, UniProt P33176); settings: Probe; protein KIF5B P33176
[19] = target: proteins of HEK293T cells transiently overexpressing caspase-6 (Homo sapiens, UniProt P07737); settings: exp_ref Probe; protein PFN1 (P07737); analysis C6
[20] = target: proteins of HEK293T cells transiently overexpressing caspase-6 (Homo sapiens, UniProt Q9Y262); settings: exp_ref Probe; protein EIF3L (Q9Y262); analysis C6
[21] = target: T2, proteins of HEK293T cells transiently overexpressing caspase-6 (Homo sapiens, UniProt P09936); settings: protein UCHL1 (P09936)
T2 sequence (P09936 1-223): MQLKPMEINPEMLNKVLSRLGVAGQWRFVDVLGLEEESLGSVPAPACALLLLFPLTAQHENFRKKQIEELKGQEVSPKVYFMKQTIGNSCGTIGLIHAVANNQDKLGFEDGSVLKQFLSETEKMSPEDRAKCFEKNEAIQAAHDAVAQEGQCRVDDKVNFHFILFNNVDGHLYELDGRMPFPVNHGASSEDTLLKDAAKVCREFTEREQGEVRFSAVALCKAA

`C#CCOc1ccc([C@@H]2C[C@@H](C(=O)Nc3ccc(OC(F)(F)F)cc3)CN(S(=O)(=O)C=C)C2)cc1` (relative stereo) [13-t] showed an enrich.exp.med [1] of -0.002133, an enrich.exp.med ([2]; exp_ref Probe, analysis C6) of 0.3594 and an enrich.exp.med.lin [2] of 1.283. It also gave an enrich.exp.med.log2 [2] of 0.3594, an enrich.exp.med.lin [3] of 8.188 and an enrich.exp.med.log2 [3] of 3.034. For the same molecule, the enrich.exp.med.lin ([3]; Expt Probe, analysis C6) was 8.188, the enrich.exp.med.log2 ([3]; Expt Probe, analysis C6) was 3.034 and the enrich.exp.med ([3]; exp_ref Probe, analysis C6) was 3.034. It also gave an enrich.exp.med [4] of -1.073, an enrich.exp.med [5] of -0.2776 and an enrich.exp.med [6] of 0.6141. The enrich.exp.med ([7]; Probe, protein FLNA P21333) was -0.9107, the enrich.exp.med.lin ([7]; protein FLNA (P21333)) was 0.5319 and the enrich.exp.med.log2 ([7]; protein FLNA (P21333)) was -0.9107. It also gave an enrich.exp.med [8] of -6.8322, an enrich.exp.med [9] of -1.712 and an enrich.exp.med.lin [10] of 2.408. For the same molecule, the enrich.exp.med.log2 [10] was 1.268, the enrich.exp.med ([10]; exp_ref Probe, analysis C6) was 1.268 and the enrich.exp.med [11] was 0.7997. For the same molecule, the enrich.exp.med [12] was -0.4971, the enrich.exp.med [13] was -0.1094 and the enrich.exp.med [14] was -0.1466. The enrich.exp.med ([15]; exp_ref Probe, analysis C6) was 0.2557, the enrich.exp.med.lin [15] was 1.194 and the enrich.exp.med.log2 [15] was 0.2557. It also gave an enrich.exp.med.lin [16] of 4.704, an enrich.exp.med.log2 [16] of 2.234 and an enrich.exp.med.lin ([16]; Expt Probe, analysis C6) of 4.704. For the same molecule, the enrich.exp.med.log2 ([16]; Expt Probe, analysis C6) was 2.234, the enrich.exp.med ([16]; exp_ref Probe, analysis C6) was 2.234 and the enrich.exp.med [17] was -2.151. It also gave an enrich.exp.med [18] of -5.169, an enrich.exp.med [19] of -0.1003 and an enrich.exp.med [20] of 0.2171. For the same molecule, the enrich.exp.med.lin [21] was 3.454, the enrich.exp.med.log2 [21] was 1.788 and the enrich.exp.med ([21]; exp_ref Probe, analysis C6) was 1.788.
